Results as given in paper PMC10258805, “Nonpeptidic Oxazole-Based Prolyl Oligopeptidase Ligands with Disease-Modifying Effects on α-Synuclein Mouse Models of Parkinson’s Disease” (Journal of Medicinal Chemistry, 2023).
Entries after “also recorded” stand apart in the source; their conditions may differ.

Assays:
Recombinant human DPP2 = molecular target: T1, Recombinant human DPP2 (Homo sapiens, UniProt Q9UHL4); assay: Close-relative enzyme specificity assay, DPP2; type: biochemical; conditions: 1 or 10 μM
T1 construct: purchased R&D Systems 3438-SE-010
Description: DPP2: Recombinant human DPP2 was purchased from R&D Systems (#3438-SE-010).
DPP2: Lys-Ala-pNA was used as the substrate at a concentration of 1 mM at pH 5.5 (100 mM NaAc, 10 mM EDTA, 14 μg/mL aprotinin). […] The substrate was added, and the velocities of pNA release were measured kinetically at 405 nm for at least 10 min at 37 °C. Measurements were done on the Infinite 200 as above.

[1] = test system: oligomeric αSyn in A30P*A53T transgenic mice; assay: Oligomeric αSyn in A30P*A53T transgenic mice; type: in vivo, mouse; conditions: TG mice, 10 mg/kg i.p. every 12 h for 7 days, vs vehicle
DPP4 = molecular target: T2, DPP4 (Homo sapiens, UniProt P27487); assay: Close-relative enzyme specificity assay, DPP4; type: biochemical; conditions: 1 or 10 μM
T2 construct: DPPIV was purified from human seminal plasma; from tissue; host or cells: human seminal plasma
T2 sequence (P27487 whole entry): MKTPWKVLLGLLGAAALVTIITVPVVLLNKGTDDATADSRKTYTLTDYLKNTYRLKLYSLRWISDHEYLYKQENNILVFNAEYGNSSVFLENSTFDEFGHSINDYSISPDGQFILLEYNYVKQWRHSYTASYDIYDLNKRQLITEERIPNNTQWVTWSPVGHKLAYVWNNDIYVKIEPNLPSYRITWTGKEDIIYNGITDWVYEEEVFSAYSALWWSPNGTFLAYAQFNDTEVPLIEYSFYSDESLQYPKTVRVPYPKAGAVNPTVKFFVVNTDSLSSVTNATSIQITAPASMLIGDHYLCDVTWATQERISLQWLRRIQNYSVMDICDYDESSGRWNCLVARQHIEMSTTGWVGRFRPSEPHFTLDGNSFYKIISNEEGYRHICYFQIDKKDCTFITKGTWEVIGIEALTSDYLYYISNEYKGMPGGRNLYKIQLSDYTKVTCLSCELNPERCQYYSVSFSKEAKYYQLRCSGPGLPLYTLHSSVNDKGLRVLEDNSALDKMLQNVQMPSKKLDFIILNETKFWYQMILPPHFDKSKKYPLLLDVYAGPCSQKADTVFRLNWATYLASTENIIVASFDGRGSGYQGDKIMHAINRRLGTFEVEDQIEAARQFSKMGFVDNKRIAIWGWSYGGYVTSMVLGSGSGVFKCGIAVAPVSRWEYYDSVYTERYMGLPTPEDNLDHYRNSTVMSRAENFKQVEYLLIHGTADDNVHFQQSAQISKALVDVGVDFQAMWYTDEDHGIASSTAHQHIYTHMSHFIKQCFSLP
Description: DPP4: DPPIV was purified from human seminal plasma, as described previously.
DPP4 and DPP9: Ala-Pro-para-nitroanilide (pNA) was used as the substrate at the respective concentrations of 25 μM (DPP4) or 150 μM (DPP9) at pH 7.4 (0.05 M HEPES–NaOH buffer with 0.1% Tween-20, 0.1 mg/mL BSA, and 150 mM NaCl). […] Measurements were done on the Infinite 200 as above.

[2] = test system: pPP2Ac and PP2Ac in mouse brain; assay: PP2A markers in mouse brain (Western blot); type: in vivo; conditions: 10 mg/kg i.p., 45 min after injection
[3] = test system: αSyn dimerization in HEK-293 PREP-KO cells; assay: αSyn-dimerization assay in PREP-KO cells; type: cell-based, human
[4] = test system: oligomeric αSyn in AAV-αSyn-injected mice; assay: Oligomer-specific αSyn immunoreactivity (OD) in AAV-αSyn PD mouse model; conditions: 10 mg/kg/day minipump, 4 weeks
[5] = test system: pPP2Ac and PP2Ac in HEK-293 cells; assay: PP2A marker assay (Western blot); type: cell-based, human; conditions: HEK-293, 10 μM

Cc1nc(CCCc2ccccc2)oc1N1CCC[C@H]1C#N [HUP-55, (S)-1-(4-Methyl-2-(3-phenylpropyl)oxazol-5-yl)pyrrolidine-2-carbonitrile]
inhibition of DPP2 (Recombinant human DPP2): no inhibition; also recorded: does not inhibit | decrease of oligomeric αSyn in the SNpc ([1]; nonsignificant): 38% | decrease of oligomeric αSyn in the STR ([1]; not statistically significant): 47% | inhibition of DPP4 (DPP4): no inhibition; also recorded: does not inhibit | inactive pPP2Ac levels in mouse brain (in words) [2]: decreased inactive pPP2Ac levels, but this was not significant | levels of PP2Ac in mouse brain (in words) [2]: significantly increased the levels of PP2Ac | effect on αSyn dimerization [3]: no effect on αSyn dimerization | OD of oligomeric αSyn in the SNpc (in words) ([4]; vs vehicle-treated group): did not significantly reduce | OD of oligomer-specific αSyn in the STR (in words) ([4]; vs vehicle-treated mice): decreased the OD of oligomer-specific αSyn | pPP2Ac levels (in words) ([5]; 4 h): significant decrease in pPP2Ac levels | total PP2Ac levels (in words) ([5]; 4 h): elevated total PP2Ac levels | PP2Ac levels (in words) ([5]; 24 h): significantly elevated
